Test results as given in patent publication US20150168420A1, “BIOORTHOGONAL CHEMICAL INDUCERS OF REVERSIBLE DIMERIZATION FOR CONTROL OF PROTEIN FUNCTION IN CELLS” (MAX-PLANCK-GESELLSCHAFT ZUR FÖRDERUNG DER WISSENSCHAFTEN …, priority 2012, published 2015).
Entries after “also recorded” stand apart in the source; their conditions may differ.

Key:
Beclin1 = details: starved EGFP-LC3 MCF-7 cells, 1 μM
FKBP(F36V) = FKBP(F36V) (Homo sapiens, UniProt P62942, F37V); details: cited from earlier work
wild type FKBP = wild type FKBP (Homo sapiens, UniProt P62942); details: cited from earlier work
[1] = target: Citrine-eDHFR-PM and Cherry-FKBP WT (Escherichia coli, UniProt P0ABQ4); assay: Translocation to plasma membrane and FLIM in MCF-7 cells, FKBP WT; type: cell-based; details: 2 μM, 2 h

## COc1cc(Cc2cnc(N)nc2N)cc(OC)c1OC [TMP, 5-(3,4,5-trimethoxybenzyl)pyrimidine-2,4-diamine]
Beclin1
  autophagy (LC3 puncta) on Beclin1 knock off / knock on: Recovery of autophagy

## CCC(C(=O)N1CCCCC1C(=O)O[C@H](CCc1ccc(OC)c(OC)c1)c1cccc(OCC(=O)O)c1)c1cc(OC)c(OC)c(OC)c1 (some centres unmarked) [SLF′]
FKBP(F36V); read-out: Kd for binding domain of FKBP(F36V)
  Kd: 0.094 nM
Wild type FKBP; in words
  binding to naturally occurring (unmutated) FKBP: does not bind at all; also recorded: very low affinity
Wild type FKBP; wild type versus F36V
  fold lower affinity for wild type FKBP than for mutant FKBP(F36V): > 1000 fold

## CCC(C)(C)C(=O)C(=O)N1CCCCC1C(=O)O[C@H](CCc1ccc(OC)c(OC)c1)c1cccc(NC(=O)CCC(=O)NCCCOCCOCCOCCCNC(=O)COc2c(OC)cc(Cc3cnc(N)nc3N)cc2OC)c1 (some centres unmarked) [SLF-TMP]
[1]
  translocation of cognate binding domain FKBP WT to the plasma membrane: cannot induce translocation

## CCC(C(=O)N1CCCCC1C(=O)O[C@H](CCc1ccc(OC)c(OC)c1)c1cccc(OCC(=O)NCCCOCCOCCOCCCNC(=O)COc2c(OC)cc(Cc3cnc(N)nc3N)cc2OC)c1)c1cc(OC)c(OC)c(OC)c1 (some centres unmarked) [SLF′-TMP]
Beclin1
  autophagy (LC3 puncta) on Beclin1 knock off / knock on: Inhibition of autophagy

## CCC(C)(C)C(=O)C(=O)N1CCCC[C@H]1C(=O)O[C@H](CCc1ccc(OC)c(OC)c1)c1cccc(OCC(=O)O)c1 [SLF]
FKBP(F36V); in words
  affinity to FKBP(F36V): low affinity
Wild type FKBP; read-out: Kd for endogenous FKBP
  Kd: 10 to 20 nM
